From patent US4108991A, “N-aminosulfenyl derivatives of aldicarb” (priority 1976, dated 1978)
Read-outs that look alike come from different tables or passages of the source.

Columns and labels:
Southern armyworm = assay: Residual (7-day) contact activity, southern armyworm; format: in vivo, Spodoptera eridania [Cram.]; settings: Spodoptera eridania, 168 h; for mortality at 625 ppm: read-out: Percent Kill, residual 7-day, AW, 625 PPM
Method: (§1) Initial Contact Activity: One half gram of test compound was dissolved in 40 ml of acetone and this solution was dispersed in 360 ml of water containing one drop of isooctylphenyl polyethoxyethanol. Aliquots of this solution, which corresponds to 1250 ppm of active ingredient, were diluted with an appropriate amount of water to provide solutions containing various concentrations of active ingredient. Test organisms and techniques were as follows: The activity against the Mexican bean beetle (Epilachna varivestis Muls.) and the southern armyworm (Spodoptera eridania [Cram.]) was evaluated by dipping the leaves of pinto bean plants into the test solution and infesting the leaves with the appropriate immature-form insects when the foiliage had dried; the activity against the pea aphid (Acyrthosiphon pisum [Harris]) was evaluated on broad bean plants whose leaves were dipped before infestation with adult aphids; the activity against two-sotted spider mites (Tetranychus urticae Koch) was evaluated on pinto bean plants whose leaves were dipped after infestation with adult mites; the activity against the milkweed bug (Oncopeltus fasciatus [Dallas]), and the plum curculio (Conotrachelus nenuphar [Herbst]) was evaluated by spraying the test solutions into glass dishes or jars containing the adult insects; the activity against the confused flour beetle (Tribolium confusum duVal) was evaluated by introducing the insects into glass dishes which had been previously sprayed with test solution and allowed to dry. All organisms in the test were maintained in a holding room at 80° F and 50% relative humidity for an exposure period of 48 hours. At the end of this time, the dead and living insects or mites were counted, and the percent kill was calculated.
(§2) Residual Contact Activity: The residual contact activity of the compounds was determined on the same organisms using the techniques described above, except that in each case the treated surface was allowed to dry and was exposed to normal light and air for seven days before introduction of the mites or insects.

Milkweed bug = assay: Initial contact activity, spray, milkweed bug; format: in vivo, Oncopeltus fasciatus [Dallas]
Method: as §1

insects and mites = assay: Systemic activity (soil-watering), insects and mites in general; format: in vivo; settings: in words
Method: Systemic Activity: Systemic activity was measured using a soil-watering technique. Test organisms were Mexican bean beetle, southern armyworm, pea aphid, and mites on plants as described above in this Example. With appropriate precautions to avoid contact of the solution with the test plant surfaces, 25 ml of a test solution, prepared as above to contain the desired amount of active ingredient, were poured evenly over the surface of the soil in which the plant was growing. The treated plants were maintained under normal growing conditions for three days to permit translocation of the toxicant, after which the leaves were infested. Two days after infestation, counts of living and dead insects were made.

Mexican bean beetle [1] = assay: Residual (7-day) contact activity, Mexican bean beetle; format: in vivo, Epilachna varivestis Muls.; settings: Epilachna varivestis, 168 h; for mortality at 625 ppm: read-out: Percent Kill, residual 7-day, BB, 625 PPM
Method: as §1, §2

Two-spotted spider mite = assay: Initial contact activity, leaf dip, two-spotted spider mite; format: in vivo, Tetranychus urticae Koch; settings: for mortality at 5 ppm / mortality at 10 ppm / mortality at 20 ppm / mortality at 39 ppm / mortality at 156 ppm / mortality at 1250 ppm: Tetranychus urticae, foliar, 48 h; for Percent Kill: 2880 min
Method: as §1

Mexican bean beetle [2] = assay: Initial contact activity, leaf dip, Mexican bean beetle; format: in vivo, Epilachna varivestis Muls.
Method: as §1

Confused flour beetle = assay: Initial contact activity, sprayed dishes, confused flour beetle; format: in vivo, Tribolium confusum duVal; settings: Tribolium confusum, 48 h, read-out: Percent Kill
Method: as §1

Plum curculio = assay: Initial contact activity, spray, plum curculio; format: in vivo, Conotrachelus nenuphar [Herbst]; settings: Conotrachelus nenuphar, 48 h, read-out: Percent Kill
Method: as §1

Work on CSC(C)(C)C=NOC(=O)N(C)SN(C)C [Example IV, 2-Methyl-2-(methylthio)propanal O-[(dimethylaminosulfenyl)-(methyl)carbamoyl]oxime] yielded a mortality at 625 ppm (Southern armyworm) of 0%, a mortality at 1250 ppm (Southern armyworm; residual 7-day, AW, 1250 PPM, read-out: Percent Kill) of 20% and a mortality at 5 ppm (Milkweed bug; Oncopeltus fasciatus, 48 h, initial, MWB, 5 PPM, 48 hours, read-out: Percent Kill) of 20%. For the same molecule, the mortality at 10 ppm (Milkweed bug; Oncopeltus fasciatus, 48 h, initial, MWB, 10 PPM, 48 hours, read-out: Percent Kill) was 26%, the mortality at 20 ppm (Milkweed bug; Oncopeltus fasciatus, 48 h, initial, MWB, 20 PPM, 48 hours, read-out: Percent Kill) was 43% and the mortality at 1250 ppm (Milkweed bug; Oncopeltus fasciatus, 48 h, initial, MWB, 1250 PPM, 48 hours, read-out: Percent Kill) was 100%. The “systemic activity compared with aldicarb” value (insects and mites) was “substantially the same as aldicarb”, the mortality at 625 ppm (Mexican bean beetle [1]) was 40% and the mortality at 312 ppm (Mexican bean beetle [1]; residual 7-day, BB, 312 PPM, read-out: Percent Kill) was 17%. The mortality at 1250 ppm (Mexican bean beetle [1]; residual 7-day, BB, 1250 PPM, read-out: Percent Kill) was 50%, the mortality at 5 ppm (Two-spotted spider mite; initial, SM, 5 PPM, 48 hours, read-out: Percent Kill) was 17% and the mortality at 10 ppm (Two-spotted spider mite; initial, SM, 10 PPM, 48 hours, read-out: Percent Kill) was 36%. The mortality at 20 ppm (Two-spotted spider mite; initial, SM, 20 PPM, 48 hours, read-out: Percent Kill) was 83%, the mortality at 39 ppm (Two-spotted spider mite; initial, SM, 39 PPM, 48 hours, read-out: Percent Kill) was 100% and the mortality at 156 ppm (Two-spotted spider mite; initial, SM, 156 PPM, 48 hours, read-out: Percent Kill) was 0%. The mortality at 1250 ppm (Two-spotted spider mite; initial, SM, 1250 PPM, 48 hours, read-out: Percent Kill) was 100%, the mortality at 20 ppm (Mexican bean beetle [2]; Epilachna varivestis, foliar, 48 h, initial, BB, 20 PPM, 48 hours, read-out: Percent Kill) was 5% and the mortality at 39 ppm (Mexican bean beetle [2]; Epilachna varivestis, foliar, 48 h, initial, BB, 39 PPM, 48 hours, read-out: Percent Kill) was 6%. It also gave a mortality at 156 ppm (Mexican bean beetle [2]; Epilachna varivestis, foliar, 48 h, initial, BB, 156 PPM, 48 hours, read-out: Percent Kill) of 39% and a mortality at 1250 ppm (Mexican bean beetle [2]; Epilachna varivestis, foliar, 48 h, initial, BB, 1250 PPM, 48 hours, read-out: Percent Kill) of 100%.

In the case of CNC(=O)ON=CC(C)(C)SC [Aldicarb, 2-methyl-2-(methylthio)propanal O-(methylcarbamoyl)oxime], the mortality at 156 ppm (Confused flour beetle) is reported as 5%, the mortality at 312 ppm (Confused flour beetle) is reported as 10% and the mortality at 1250 ppm (Confused flour beetle) is reported as 90%. It also gave a mortality at 312 ppm (Southern armyworm; read-out: Percent Kill, residual 7-day, AW, 312 PPM) of 0%, a mortality at 625 ppm (Southern armyworm) of 0% and a mortality at 5 ppm (Milkweed bug; Oncopeltus fasciatus, 48 h, read-out: Percent Kill, initial, MWB, 5 PPM, 48 hours) of 30%. The mortality at 10 ppm (Milkweed bug; Oncopeltus fasciatus, 48 h, read-out: Percent Kill, initial, MWB, 10 PPM, 48 hours) was 55%, the mortality at 20 ppm (Milkweed bug; Oncopeltus fasciatus, 48 h, read-out: Percent Kill, initial, MWB, 20 PPM, 48 hours) was 95% and the mortality at 39 ppm (Milkweed bug; Oncopeltus fasciatus, 48 h, read-out: Percent Kill, initial, MWB, 39 PPM, 48 hours) was 100%. For the same molecule, the mortality at 156 ppm (Milkweed bug; Oncopeltus fasciatus, 48 h, read-out: Percent Kill, initial, MWB, 156 PPM, 48 hours) was 100%, the mortality at 1250 ppm (Milkweed bug; Oncopeltus fasciatus, 48 h, read-out: Percent Kill, initial, MWB, 1250 PPM, 48 hours) was 100% and the “Percent Kill” value (Milkweed bug; initial, MWB, 10 PPM, 48 hours, 2880 min) was 70%. The mortality at 10 ppm (Plum curculio) was 10%, the mortality at 39 ppm (Plum curculio) was 35% and the mortality at 156 ppm (Plum curculio) was 100%. The mortality at 1250 ppm (Plum curculio) was 100%, the mortality at 625 ppm (Mexican bean beetle [1]) was 47% and the mortality at 1250 ppm (Mexican bean beetle [1]; read-out: Percent Kill, residual 7-day, BB, 1250 PPM) was 100%. The mortality at 5 ppm (Two-spotted spider mite; read-out: Percent Kill, initial, SM, 5 PPM, 48 hours) was 21%, the mortality at 10 ppm (Two-spotted spider mite; read-out: Percent Kill, initial, SM, 10 PPM, 48 hours) was 88% and the mortality at 20 ppm (Two-spotted spider mite; read-out: Percent Kill, initial, SM, 20 PPM, 48 hours) was 100%. For the same molecule, the mortality at 39 ppm (Two-spotted spider mite; read-out: Percent Kill, initial, SM, 39 PPM, 48 hours) was 100%, the mortality at 156 ppm (Two-spotted spider mite; read-out: Percent Kill, initial, SM, 156 PPM, 48 hours) was 100% and the mortality at 1250 ppm (Two-spotted spider mite; read-out: Percent Kill, initial, SM, 1250 PPM, 48 hours) was 100%. The “Percent Kill” value (Two-spotted spider mite; initial, SM, 10 PPM, 48 hours) was 100%, the “Percent Kill” value (Two-spotted spider mite; initial, SM, 1250 PPM, 48 hours) was 95% and the mortality at 20 ppm (Mexican bean beetle [2]; Epilachna varivestis, foliar, 48 h, read-out: Percent Kill, initial, BB, 20 PPM, 48 hours) was 0%. It also gave a mortality at 39 ppm (Mexican bean beetle [2]; Epilachna varivestis, foliar, 48 h, read-out: Percent Kill, initial, BB, 39 PPM, 48 hours) of 40%, a mortality at 156 ppm (Mexican bean beetle [2]; Epilachna varivestis, foliar, 48 h, read-out: Percent Kill, initial, BB, 156 PPM, 48 hours) of 89% and a mortality at 312 ppm (Mexican bean beetle [2]; Epilachna varivestis, foliar, 48 h, read-out: Percent Kill, initial, BB, 312 PPM, 48 hours) of 95%. For the same molecule, the mortality at 625 ppm (Mexican bean beetle [2]; Epilachna varivestis, foliar, 48 h, read-out: Percent Kill, initial, BB, 625 PPM, 48 hours) was 100%, the mortality at 1250 ppm (Mexican bean beetle [2]; Epilachna varivestis, foliar, 48 h, read-out: Percent Kill, initial, BB, 1250 PPM, 48 hours) was 100% and the “Percent Kill” value (Mexican bean beetle [2]; initial, BB, 156 PPM, 48 hours, 2880 min) was 91%.
